# Values quoted from earlier work as cited in patent US12629339B2, “Lithium salt extended-release formulations; methods of making; and methods of use thereof” (Almatica Pharma LLC, priority 2023, dated 2026).
# Settings: serum lithium level
smiles,measurement,value
[Li] [lithium],Toxic concentration of lithium,≥ 1.5 mEq/L
